Values of other authors as cited in US20110245283A1, “Methods for predicting the response to statins” (priority 2009, published 2011).
Where two headings read alike, the source gives them in different places.

Conditions: cited from earlier work

Compound	Increased risk of toxicity or reduced statin effectiveness (with Fluva)	Severity of the interaction (with Fluva)	Increased risk of toxicity or reduced statin effectiveness (with Atorva)	Increased risk of toxicity or reduced statin effectiveness (with Lova)	Increased risk of toxicity or reduced statin effectiveness (with Rosuva)	Increased risk of toxicity or reduced statin effectiveness (with Simva)	Severity of the interaction (with Lova)	Severity of the interaction (with Simva)	Severity of the interaction (with Atorva)	Increased risk of toxicity or reduced statin effectiveness (with Prava)	Severity of the interaction (with Prava)	Severity of the interaction (with Rosuva)
COC(=O)[C@H](c1ccccc1Cl)N1CCc2sccc2C1 [Clopidogrel]	(+)	2										
OC(Cn1cncn1)(Cn1cncn1)c1ccc(F)cc1F [Fluconazole]	(+)		(+)	(+)	(+)	(+)						
CCCCc1oc2ccccc2c1C(=O)c1cc(I)c(OCCN(CC)CC)c(I)c1 [Amiodarone]							3	3				
CCc1nn(CCCN2CCN(c3cccc(Cl)c3)CC2)c(=O)n1CCOc1ccccc1 [Nefazodone]			(+)	(+)		(+)	3	3	3	(+)	2	
O=C1NC(c2ccccc2)(c2ccccc2)C(=O)N1COP(=O)(O)O [Fosphenytoin]								2	2			
CC(C)Nc1cccnc1N1CCN(C(=O)c2cc3cc(NS(C)(=O)=O)ccc3[nH]2)CC1 [Delavirdine]			(+)						2			
COC(=O)N[C@H](C(=O)N[C@@H](Cc1ccccc1)[C@@H](O)CN(Cc1ccc(-c2ccccn2)cc1)NC(=O)[C@@H](NC(=O)OC)C(C)(C)C)C(C)(C)C [Atazanavir]			(+)	(+)		(+)	3	3	3			
CC(C)(Oc1ccc(C2CC2(Cl)Cl)cc1)C(=O)O (centres unmarked) [Ciprofibrate]	(+)	3	(+)	(+)		(+)	3	3	3	(+)	3	
CC(C)CN(C[C@@H](O)[C@H](Cc1ccccc1)NC(=O)O[C@H]1CCOC1)S(=O)(=O)c1ccc(N)cc1 [Amprenavir]			(+)	(+)		(+)	3	3	2	(+)	2	
CC(C)CN(C[C@@H](OP(=O)(O)O)[C@H](Cc1ccccc1)NC(=O)O[C@H]1CCOC1)S(=O)(=O)c1ccc(N)cc1 [Fosamprenavir]			(+)	(+)		(+)	3	3	3			
CC(=O)N1CCN(c2ccc(OCC3COC(Cn4ccnc4)(c4ccc(Cl)cc4Cl)O3)cc2)CC1 (centres unmarked) [Ketoconazole]			(+)	(+)		(+)	3	3	3			
CCC(C)n1ncn(-c2ccc(N3CCN(c4ccc(OCC5COC(Cn6cncn6)(c6ccc(Cl)cc6Cl)O5)cc4)CC3)cc2)c1=O (centres unmarked) [Itraconazole]			(+)	(+)	(+)	(+)	4	4	3			2
